Regarding `Nc1cnc2ccccc2c1N`, the melting point (usually the temperature of the solid-liquid transition) is 183 to 185 °C.
In the case of `CC(CCC(=O)O)C1CCC2C3CC(O)C4=CC(O)CCC4(C)C3CCC12C` (stereo unspecified) it was 200 to 201 °C; in that of `CCOC(=O)C1CN(Cc2ccco2)C(=O)C1=O` (stereo unspecified), 127 to 129 °C.
The figure for `[N-]=[N+]=NC(=O)C=Cc1ccc(C=CC(=O)N=[N+]=[N-])cc1` is 80 °C; for `FC(F)(F)C(F)(F)C(F)(F)C(F)(F)C(F)(F)C(F)(F)C(F)(F)C(F)(F)Br` it is under 25 °C; for `Clc1ccc2c(c1)Oc1c(Cl)c(Cl)c(Cl)c(Cl)c1O2` it is 195 °C.
In the case of `O=C(O)c1ccc2[nH]c3c(c2c1)CCCC3` it was 266 to 268 °C; in that of `CC(=O)c1occc1O`, 100 °C.
Compound `CN(CCO)c1nc2c(c(=O)n(C)c(=O)n2C)n1C` gave a melting point of 105 °C.
In the case of `Nc1c(O)cccc1C(=O)O` it was 240 °C; in that of `CS(=O)(=O)c1ccc(-c2cn3ccccc3n2)cc1`, 242 °C.
In the case of `CCCC(=O)c1cc2cc(Br)cc(Br)c2oc1=O` it was 200 to 202 °C; in that of `CCOC(=O)c1c(C)nc2sc3c(c2c1N)CCCC3`, 135 to 136 °C.
In the case of `O=C(O)c1cccc(Cl)c1F` it was 177 °C; in that of `O=C1CSC(=S)N1c1ccccc1`, 194 °C; in that of `O=C(O)CS(=O)(=O)CC(=O)O`, 182 °C.
With `O=[N+]([O-])c1ccc(Br)c(C(F)(F)F)c1`, the melting point came to 43 °C.
In the case of `CCC(C(=O)OC)c1ccccc1` (stereo unspecified) it was 77.5 °C; in that of `COc1ccc2c(c1)C(=O)C2`, 55 °C.
Turning to `O=Cc1c(-c2ccc(Cl)cc2)[nH]c2ccccc12`, the melting point was in the range of 257 to 258 °C.
In the case of `COC(=O)c1ccccc1SCC#N` it was 121 to 124 °C; in that of `Cc1nc(N)nc(O)n1`, 300 °C; in that of `Cc1cc(Cl)nn1C`, 47.5 °C.
`O=Nc1ccc(Nc2ccccc2)cc1` showed a melting point of 143 °C.
For the compound `COC(=O)c1ccccc1SCC(C)=O`, the melting point was in the range of 60 to 61 °C.
In the case of `CCCCCCCOc1ccc(N=[N+]([O-])c2ccc(OCCCCCCC)cc2)cc1` it was 73 to 122 °C; in that of `OCc1snnc1-c1ccccc1`, 116 to 118 °C; in that of `NNC(=O)c1cccc(F)c1`, 138 to 139 °C.
The figure for `c1ccc2sc(SSc3nc4ccccc4s3)nc2c1` is 180 °C; for `COC(=O)c1ccc(Cl)nc1` it is 86 °C; for `CC(=O)c1ccc2c(c1)OCCO2` it is 83 °C.
In the case of `O=C(Nc1nnc(-c2ccc(Cl)cc2)o1)c1ccc(Cl)cc1Cl` it was 212 to 213 °C.
`COc1cc(O)c2c(=O)c(O)c(-c3ccc(OCc4ccccc4)c(O)c3)oc2c1` came in with a melting point of 208 °C.
In the case of `O=C1C=C(NCCc2ccccc2)C(=O)c2ccccc21` it was 141 °C; in that of `Nc1cccc(Cn2cncn2)c1`, 88 to 89 °C; in that of `O=C(Oc1c(F)c(F)c(F)c(F)c1F)c1ccc(-c2ccccc2)nc1`, 113 to 115 °C.
`OCc1ccc(I)c(O)c1` displayed a melting point of 148 °C.
The figure for `CC(O)c1ccc(N)cc1` (stereo unspecified) is 70 °C; for `C(=Cc1ccccn1)c1ccccn1` it is 118 °C.
The figure for `CC(C)NCC(O)c1cc(O)cc(O)c1` (stereo unspecified) is 100 °C; for `O=C(O)COc1ccccc1O` it is 128 °C; for `NC(=O)C1CCCNC1` (stereo unspecified) it is 102 to 108 °C.
In the case of `FC(F)(F)CBr` it was -93.9 °C; in that of `Cc1c(Nc2ncccc2C(=O)O)cccc1C(F)(F)F`, 226 °C; in that of `CC(=O)Oc1c(-c2ccccc2)[nH]c2ccccc12`, 107 °C.
`CC(C)CC1=CC(=Cc2ccc(-c3ccccc3)o2)C(=O)O1` displayed a melting point of 75 to 76 °C.
`CC(=O)OC1CCC2C3CCC4CC(=C(C)C)CCC4(C)C3CCC12C` (stereo unspecified) had a melting point of 107 to 108 °C.
In the case of `CC(=O)CC(C)(C)C` it was -64 °C.
In the case of `CCC(C)(C)[C@H]1CC[C@H](O)CC1` it was 26 °C; in that of `Oc1ccccc1N1CCCC1`, 111 °C; in that of `O=C1Cc2ccccc2C(=O)Cc2ccccc21`, 207 to 209 °C.
The figure for `Nc1ncccc1C(=O)O` is 295 to 297 °C; for `O=C1CC2C(CC(O)C2CO)O1` (single isomer, unassigned; (-)) it is 114 to 118 °C; for `O=C(N=C=S)c1ccc([N+](=O)[O-])cc1` it is 90 to 92 °C.
As to `O=S(=O)(c1ccccc1)n1ccc2cc(Br)ccc21`, the melting point is 90 to 93 °C.
`c1ccc(N2CCOCC2)cc1` showed a melting point of 51 to 54 °C.
In the case of `COC(C)=O` it was -98 °C; in that of `OCC1OC(O)CC(O)C1O` (stereo unspecified), 150 °C; in that of `OC(c1ccc(-c2ccc(C(O)(C(F)(F)F)C(F)(F)F)cc2)cc1)(C(F)(F)F)C(F)(F)F`, 125 to 126 °C.
In the case of `Cn1c(/C(C#N)=N/Nc2c(Cl)cc(Cl)cc2Cl)nc2ccccc21` it was 168 °C.
The figure for `COC(=O)c1cc2cc(N)ccc2s1` is 178 to 179 °C.
With `CC(C)(Cl)CCC(C)(C)Cl`, the melting point is 67.5 °C.
In the case of `O=[N+]([O-])c1ccc(-c2ccc([N+](=O)[O-])cc2Cl)cc1` it was 144 to 146 °C.
The figure for `CC1=C(C=NNC(N)=O)C(=O)C(C(C)C)C=C1` (stereo unspecified) is 221 to 222 °C; for `CNc1nnc(C(F)(F)F)s1` it is 115 to 117 °C.
The figure for `Nc1c(F)cc(F)cc1Br` is 40 °C; for `O=Cc1ccccc1OCC(=O)O` it is 133 °C.
Consider `Nc1cc(F)c(F)cc1C(=O)O`, for which the melting point is 182 °C.
In the case of `NC(=O)c1c(F)c(F)c(N)c(F)c1F` it was 183 to 187 °C.
In the case of `COC(=O)C=Cc1ccc(C=CC(=O)OC)c(NC(C)=O)c1` it was 168 °C.
The figure for `CC1CC2C3CC(F)C4=CC(=O)C=CC4(C)C3C(O)CC2(C)C1C(=O)CO` (stereo unspecified) is 188 °C; for `CCOC(=O)c1c(SC)nn(C(N)=S)c1N` it is 149 °C.
`CCOC(=O)c1cc(-c2ccc(C)cc2)oc1C` had a melting point of 82 to 83 °C.
In the case of `N#Cc1ccccc1C(F)(F)F` it was 18 °C; in that of `O=C(Nc1ccccc1SC(=O)c1ccccc1)c1ccccc1`, 152 °C; in that of `CN1COCc2c1ccc1cc3ccc(N)c(CO)c3nc21`, 235 °C.
The figure for `Fc1ccc(F)c(F)c1F` is -42 °C; for `O=S(=O)(SS(=O)(=O)c1ccccc1)c1ccccc1` it is 129 to 134 °C.
Compound `Fc1c(F)c(-c2c(F)c(F)c(Br)c(F)c2F)c(F)c(F)c1Br` displayed a melting point of 113 to 115 °C.
The figure for `Cc1ccsc1C(=O)O` is 147 °C; for `O=[N+]([O-])c1ccc(S(=O)(=O)N2CCOCC2)cc1` it is 173 to 175 °C.
The figure for `CC(=NO)C(C)(C)O` is 85 °C.
In the case of `N#CSC#N` it was 63.5 °C; in that of `COC(=O)C=Cc1ccc(C=CC(=O)OC)c(N)c1`, 159 °C; in that of `O=C(O)C(CBr)CBr`, 100 °C.
In turn, `CCN(CC)c1nc(C)cc(OP(=S)(OC)OC)n1` had a melting point of 21 °C.
Consider `CC1=C(C(=O)Nc2ccccc2)SCCO1`, for which the melting point worked out at 91.5 °C.
`OC(Cc1ccccc1)c1ccccc1` (stereo unspecified) came in with a melting point of 67 °C.
For the compound `O=C(O)C1C(c2ccccc2)C(C(=O)O)C1c1ccccc1` (stereo unspecified), the melting point came out at 228 °C.
Consider `CN(c1c(F)c(F)c(C#N)c(F)c1F)N(O)O`, for which the melting point was 53 °C.
In the case of `CCCCCCCCOc1ccc(NC(=O)c2ccc(C)cc2)cc1` it was 140 to 142 °C; in that of `NC(=O)CC(N)=O`, 169 °C.
The figure for `Cn1[nH]c(N)c2c(=O)c(C(=O)O)cnc1-2` is 224 °C; for `O=Cc1cccc(N2CCCC2)n1` it is 63 to 65 °C.
The figure for `O=Cc1cc([N+](=O)[O-])cc([N+](=O)[O-])c1O` is 72.5 °C; for `CC1(C)CNC(=NN=C(C=Cc2ccc(C(F)(F)F)cc2)C=Cc2ccc(C(F)(F)F)cc2)NC1` it is 188 °C; for `CCN(CC)c1ccc(C(c2ccc(N(CC)CC)cc2C)c2ccc(N(CC)CC)cc2C)c(C)c1` it is 163 to 165 °C.
`O=C(NCCCBr)c1cc([N+](=O)[O-])cc([N+](=O)[O-])c1` had a melting point of 195 °C.
The figure for `Nc1ccc(S(=O)(=O)c2ccc(NCC(=O)O)cc2)cc1` is 194 °C; for `O=Cc1cc([N+](=O)[O-])ccc1N1CCOCC1` it is 115 °C.
As to `CC(=O)CCc1ccc2c(c1)NC(C)CC2` (stereo unspecified), the melting point turned out to be 54 °C.
In the case of `Cc1ccc(C(N)=NO)cc1F` it was 105 to 107 °C; in that of `CN[C@@H](Cc1c[nH]c2ccccc12)C(=O)O`, 295 °C.
In the case of `CC1CCC(C(C)C)C(OC(=O)C(C(=O)c2ccccc2)c2ccccc2)C1` (stereo unspecified) it was 115 °C; in that of `COc1cc(/C=C/C(=O)c2ccc3ccccc3c2)cc(OC)c1OC`, 119 °C; in that of `CC(C)NCC(O)COc1ccc(O)cc1` (stereo unspecified), 128 °C.
The figure for `O=C(O)/C=C/Cl` is 82 °C; for `COc1cccc2[nH]ccc12` it is 70 °C.
Consider `CC1(O)CC(c2ccccc2)C([N+](=O)[O-])C(c2ccccc2N)O1` (stereo unspecified), for which the melting point is 148 °C.
In the case of `O=Cc1cnc2ccccc2n1` it was 108 to 111 °C; in that of `CC(C)(C)c1cnc(C(=O)Nc2cccc(Br)c2)cn1`, 113 to 114 °C.

The values above are taken from a melting point compilation (Tetko et al.).
